Earlier results as cited in patent publication US20070027116A1, “Therapeutic phosphonate derivatives” (priority 2003, published 2007).

Conditions: after oral or intravenous administration; background statement

drug cleared by glucuronidation and excreted in the urine: over 90%
SMILES: COc1c(C)c2c(c(O)c1C/C=C(\C)CCC(=O)OCCN1CCOCC1)C(=O)OC2 [Mycophenolate mofetil]
